The assay concerns the target Peptidyl-prolyl cis-trans isomerase A (Homo sapiens, UniProt P62937).

The values below come from ChEMBL document CHEMBL1152440, “Discovering potent small molecule inhibitors of cyclophilin A using de novo drug design approach” (J Med Chem, 2009).

Peptidyl-prolyl cis-trans isomerase A, sequence (P62937 whole entry): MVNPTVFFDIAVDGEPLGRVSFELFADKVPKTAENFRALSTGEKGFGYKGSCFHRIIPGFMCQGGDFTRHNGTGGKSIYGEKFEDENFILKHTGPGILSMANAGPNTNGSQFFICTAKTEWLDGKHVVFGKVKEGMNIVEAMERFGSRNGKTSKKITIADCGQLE
Description: Inhibition of peptidyl-prolyl isomerase activity of Cyclophilin A

Regarding `COc1cccc(F)c1C(=O)NC(=O)NC1c2ccccc2-c2ccccc21`, the IC50 result is given as “Not Active”.

For the molecule `O=C(NC(=O)c1c(F)cccc1OCc1ccccc1)NC1c2ccccc2-c2ccccc21`, the IC50 entry is listed as “Not Active”.

`O=C(NCCc1ccccc1)NC(=O)c1c(O)cccc1O`: the IC50 result is listed as “Not Active”.

On to `O=C(NC(=O)c1ccccc1)NC1c2ccccc2-c2ccccc21`, for which the IC50 result was “Not Active”.

Take `Cc1ccccc1C(=O)NC(=O)NC1c2ccccc2-c2ccccc21`: the IC50 result was “Not Active”.
